Measured values taken from publication PMC3027353 (Journal of nuclear medicine : official publication, Society …, 2010).
Where two headings read alike, the source gives them in different places.

Tests used:
TSPO [1] = target: T1, TSPO (Rattus norvegicus, UniProt P16257); test: Radioligand displacement of [^3H]PK 11195 by PBR06 in C6 glioma cell lysate; format: binding; conditions: C6 glioma cell line homogenates/lysate; non-linear regression; triplicate
TSPO [2] = target: T1, TSPO; conditions: cited from earlier work
TSPO [3] = target: T1, TSPO; format: in vivo; conditions: for K1/k2: 3-compartment, 4-rate constant model; for VT (total distribution volume): from graphical analysis, N = 4
TSPO [4] = target: T1, TSPO; conditions: in vivo
[5] = HPLC radiometabolite analysis of arterial plasma after [^18F]PBR06 injection; format: in vivo, rat

T1 sequence (P16257 whole entry): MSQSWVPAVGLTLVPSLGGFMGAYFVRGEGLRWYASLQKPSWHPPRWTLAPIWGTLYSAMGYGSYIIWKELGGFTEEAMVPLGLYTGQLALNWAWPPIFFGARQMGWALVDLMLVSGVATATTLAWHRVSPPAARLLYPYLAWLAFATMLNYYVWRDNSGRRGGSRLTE

For `COc1ccc(OC)c(CN(C(=O)CF)c2ccccc2Oc2ccccc2)c1` [PBR06, N-fluoroacetyl-N-(2,5-dimethoxybenzyl)-2-phenoxyaniline], which “IC50, displacement of [^3H]PK 11195” value (TSPO [1]) is on record?
Its value is “in the nanomolar range”.

Which “In vitro affinity for TSPO” value (TSPO [2]) does the source give for `CCC(C)N(C)C(=O)c1cc2ccccc2c(-c2ccccc2Cl)n1` (centres unmarked) [PK 11195] here?
The value was “low nanomolar range”.

With `CN1C(=O)CN=C(c2ccc(Cl)cc2)c2cc(Cl)ccc21` [Ro5-4864] as the compound, how does the “In vitro affinity for TSPO” value (TSPO [2]) read?
The value was “low nanomolar range”.

What does the source list for `COc1ccc(OC)c(CN(C(=O)C[18F])c2ccccc2Oc2ccccc2)c1` [[^18F]PBR06, ^18F-N-fluoroacetyl-N-(2,5-dimethoxybenzyl)-2-phenoxyaniline]?
K1/k2 (TSPO [3]; Brain, mean ± S.E., N = 3): 6.164 ± 2.049 mL/g; VT (total distribution volume) (TSPO [3]; Brain, mean ± S.E.): 13.07 ± 3.901 mL/g; k3 (TSPO [3]; Brain, mean ± S.E., N = 3): 0.0714 ± 0.0261 min⁻¹; k4 (TSPO [3]; Brain, mean ± S.E., N = 3): 0.00945 ± 0.005532 min⁻¹; K1/k2 (TSPO [3]; Tumor, mean ± S.E., N = 3): 5.947 ± 1.982 mL/g; VT (total distribution volume) (TSPO [3]; Tumor, mean ± S.E.): 63.90 ± 3.400 mL/g; k3 (TSPO [3]; Tumor, mean ± S.E., N = 3): 0.3870 ± 0.1592 min⁻¹; Plasma clearance (TSPO [3]; after initial spike following tracer injection): rapidly cleared from plasma; Total radioactivity in tumor tissue relative to normal brain (TSPO [3]; last 20 minutes of the 90 min PET scan, C6 glioma-bearing rats): three- to four-fold higher; Displaceable binding of [^18F]PBR06 in tumor (TSPO [4]): approximately 75%; Tumor activity after PBR06 injection, as % of peak tumor uptake (TSPO [4]): approximately 25%; Fraction of plasma radioactivity ([5]; at 45 min after [^18F]PBR06, 15 min after cold PBR06 infusion): 57%; Fraction of plasma radioactivity ([5]; printed 'at 2.8 min' (2 min sample after [^18F]PBR06 injection)): 75%; Fraction of plasma radioactivity ([5]; printed 'at 30 min' (25 min sample after [^18F]PBR06 injection)): 38%
